For assay [1], the system named is human neuroblastoma and lung carcinoma cell lines. The experiment in a line: Tumor Cell Titer-Glo viability assay, interference with cisplatin tumor killing (six cell lines). Format: cell-based. The note with it: compound at 3× protective IC50 (dabrafenib 35 μM, AZD5438 […]) + 15 μM cisplatin (200 μM for A549), 48 hours. From the text: (§1) In clinical settings, cisplatin is used to treat several tumor types, including neuroblastoma and lung carcinoma. […] Medium-alone–, cisplatin-alone–, and dabrafenib-alone–treated cells were used as controls, and viability was reported as percent survival compared to medium alone (Fig. 4E).
(§2) Three human neuroblastoma cell lines IMR-32, SH-SY5Y, and, SK-N-AS, as well as three human lung carcinoma cell lines SHP-77 small cell, H1155 non–small cell, and A549 non–small cell, were used to determine the compounds’ effect on cisplatin’s tumor-killing efficacy ([77]–[83]). Cell lines were purchased from the American Type Culture Collection (ATCC), and cell culture was conducted according to ATCC specifications. Neuroblastoma cell lines IMR-32 and SH-SY5Y are maintained in Dulbecco’s modified Eagle’s medium (DMEM) 1× with glucose (4.5 g/liter), L-glutamine, and sodium pyruvate (10-013-CV, Corning) with 10% fetal bovine serum (FBS) (35011132, Corning) and ampicillin (50 μg/ml; A5354-10ML, Sigma-Aldrich) added. The SK-N-AS cell line is maintained in DMEM 1× with D-glucose (4.5 g/liter), L-glutamine, and 25 mM Hepes (12430-054, Gibco) with 10% FBS, 0.1 mM nonessential amino acids, and ampicillin (50 μg/ml) added. A549 cells are maintained in F-12K medium with L-glutamine (30-2004, ATCC) with 10% FBS and ampicillin (50 μg/ml) added. […]
(Cellular ATP, detected with luciferase, serves as a proxy for viable cell number.)

Assay [2] has as its system Tg(brn3c:GFP) zebrafish larvae neuromast HCs. The experiment in a line: Zebrafish lateral line neuromast hair cell loss after cisplatin. Format: in vivo. Conditions: 1 hour pretreatment, 6 hours 400 μM cisplatin; dabrafenib 100 nM. The text has this:
Lateral line neuromasts of zebrafish are a well-established model for the study of drug protection from cisplatin or aminoglycoside toxicity because their HCs are considered homologous to mammalian HCs and readily accessible to compounds in vivo ([47]–[49]). As in our previous studies, MI1 (medial neuromast 1) and O1-2 (otic line) neuromasts were examined in Tg(brn3c:GFP) zebrafish larvae 5 days after fertilization ([50], [51]). […] Green fluorescent protein (GFP) (brn3c) and otoferlin staining were used to identify neuromast HCs. In fig.
Zebrafish (D. rerio) experimental larvae of either sex were obtained by pair mating of adult fish maintained at Boys Town National Research Hospital. We used zebrafish line Tg(brn3c:GFP) that expresses a membrane-bound GFP in HCs. Fish were maintained at 28.5°C in E3 media [5 mM NaCl, 0.17 mM KCl, 0.33 mM CaCl2, and 0.33 MgSO4 (pH 7.2)] at a density of 50 embryos/larvae per […] petri dish. Experimental animals were used at 5 days post-fertilization and cryo-anesthetized after treatment and before fixation. Average HC counts in our studies were obtained from the following three neuromasts: MI1 (medial neuromast 1) and O1 and O2 (otic line).

Assay [3] relates to SK-N-AS. The assay can be described thus: Tumor Cell Titer-Glo viability assay, SK-N-AS. Format: cell-based, human. The note with it: SKN-AS, + 15 μM cisplatin, 48 hours.
Description: as §1, §2

The subject of assay [4] is P42 FVB mice. The assay can be described thus: Cisplatin-induced hearing loss in adult mice (ABR, OHC counts, pERK). Conditions: 75 mg/kg oral gavage, cisplatin 30 mg/kg i.p. How it is done: As described in Fig. 4A, baseline auditory brainstem response (ABR) thresholds for P42 FVB mice were established 1 week before experimental procedures. […] Animals were allowed 21 days after cisplatin injection to recover, and final ABR thresholds were recorded.
Ten milligrams of cisplatin (479306, Sigma-Aldrich) powder was dissolved in 10 ml of sterile saline (0.9% NaCl) at 37°C for 40 to 60 min. Cisplatin was administered to FVB mice at 30 mg/kg via intraperitoneal injection. One day before cisplatin injection, mice received 1 ml of saline by subcutaneous injection. To ameliorate dehydration after cisplatin injection, 1 ml of warm saline was injected twice per day for at least 7 days or until body weight started to recover. The cages of cisplatin-treated mice were placed on the heating pad for at least 7 days or until body weight began to recover. Fresh mush food was daily given for at least 7 days.
(§3) Compounds were dissolved in a mixture of 10% DMSO, 5% Tween 80 (P1754, Sigma-Aldrich), 40% PEG-E-300 (91462-1KG, Sigma-Aldrich), and 45% 0.9% saline.
(§4) ABR in mice was measured for left ears as described previously with minor modifications ([13], [34]). In brief, ABR waveforms were recorded in a sound booth (Industrial Acoustic Company) by using subdermal needles positioned in the skull, below the pinna, and at the base of the tail, and the responses were fed into a low-impedance Medusa digital biological amplifier system (RA4L; TDT; 20-dB gain). At each frequency, the stimulus intensity was reduced from 90 to 0 dB in 10-dB steps to determine the threshold decibel SPL when the electrical response was just above the noise floor. ABR waveforms were averaged in response to 500 tone bursts. The recorded signals were filtered by a band-pass filter from 300 Hz to 3 kHz. Pretreatment ABR recordings of adult FVB mice (aged 6 weeks) were acquired 1 week before all treatments, and posttreatment ABR measurements were recorded 21 days after cisplatin treatment or 14 days after noise exposure. ABR threshold was determined by the presence of any of three or more of the five waveform peaks. […] All thresholds and shifts were determined independently by two experimenters for each mouse. Individual ABR wave 1 amplitudes were measured as the difference between the positive peak and the following negative trough.
Cochleae from adult mice were prepared and examined as described previously ([85], [86]). All images were acquired with a confocal microscope (LSM 700 or 710, Zeiss). Samples were stained with phalloidin (A12379 or A12380, Invitrogen) or with antibodies for other markers. The following primary antibodies were used: anti–myosin VI (1:400; 25-6791; Proteus Bioscience), anti–myosin VIIa ([…];138-1-s, Developmental Studies Hybridoma Bank), anti-Tuj1 (1:250; 801201, BioLegend), anti-pERK (1:400; 9101S, Cell Signaling Technology), or anti-Ctbp2 (1:500; 612044, BD Transduction). Anti-rabbit Alexa Fluor 488 (1:400; A11034) and anti-mouse Alexa Fluor 647 (1:400; A31571) secondary antibodies were purchased from Invitrogen. ProLong gold antifade reagent with 4′,6-diamidino-2-phenylindole (P36941, Invitrogen) was used to counterstain nuclei.

The test system of assay [5] is P42 FVB mice. The experiment in a line: Noise-induced hearing loss in adult mice (ABR, DPOAE, Ctbp2 puncta, pERK). Format: in vivo, mouse. How it is done:
Noise injury cannot always be predicted, and pretreatment is often not an option.
as §3, §4
Mice were placed in individual cages in a custom-made acrylic chamber. The sound stimulus was produced by System RZ6 (TDT) equipment and amplified using a 75-A power amplifier (Crown). Sound was delivered to the acrylic chamber via a speaker horn (JBL). The SPL was calibrated with a 1/4-inch free-field microphone (PCB). Before experimental noise exposure, four quadrants of the cage inside the chamber were sampled with the 1/4-inch microphone to ensure that the SPL varied by <0.5 dB across the measured positions. Adult mice were then exposed to 2 hours of octave band noise (8 to 16 kHz) at 100 dB.
Organs of Corti were costained with anti-Ctbp2 and anti–myosin VI antibodies. Confocal imaging was performed using a Zeiss 700 scanning confocal microscope with a 63× objective. Visualization and projections were performed using ZEN 2009 or ZEN 2012 software (Zeiss). Ctbp2 puncta were visualized and counted on the reconstructed three-dimensional images by using the ZEN 2009 or ZEN 2012 three-dimensional construct function as previously reported ([54]). […] Images were acquired around 16-kHz cochlear regions, and each image included 12 to 18 IHCs that were quantified as total number of Ctbp2 puncta divided by total number of IHCs per image.

For `Cc1ncc(-c2ccnc(Nc3ccc(S(C)(=O)=O)cc3)n2)n1C(C)C` [AZD5438], the “effect on cisplatin-induced tumor cell death” value in assay [1] was “did not interfere with or enhanced”. Moreover, the “protection from cisplatin-induced neuromast HC loss” value in assay [2] is reported as “confer protection”. Moreover, the “interference with cisplatin killing ability” value in assay [3] was “interfered with cisplatin killing ability”. Moreover, in assay [4], the “protection against cisplatin-induced hearing loss, pretreatment” value is reported as “protected”. Further, the “reduction of ABR threshold shifts, treatment after noise” value in assay [5] (35 mg/kg twice daily oral gavage, post-noise) is recorded as “did not significantly reduce”. The “protection against noise-induced hearing loss, pretreatment” value in assay [5] (75 mg/kg oral gavage pretreatment) is recorded as “protected”.
